From ChEMBL document CHEMBL1201862, “PubChem BioAssay data set” (2004)
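Grown in 96-well plates, cells were treated for 48 hours with each compound at five concentrations. Insufficient inhibition: endpoint recorded as highest concentration tested. GI50: concentration for 50% inhibition of growth.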 Active and inactive are the calls of the source. Rule as the data show it: active = GI50 up to about 1.1 µM and inactive = higher.

What was measured:
Test in all cases: DTP human tumour cell line panel, 48 h
HCT-116 = test system: HCT-116
K562 = test system: K562
U-251 = test system: U-251
OVCAR-3 = test system: OVCAR-3
HL-60 = test system: HL-60
M14 = test system: M14
786-0 = test system: 786-0
Hs-578T = test system: Hs-578T
MDA-N = test system: MDA-N
BT-549 = test system: BT-549
Malme-3M = test system: Malme-3M
HOP-92 = test system: HOP-92
OVCAR-4 = test system: OVCAR-4
RPMI-8226 = test system: RPMI-8226
EKVX = test system: EKVX
UO-31 = test system: UO-31
MDA-MB-435 = test system: MDA-MB-435
SK-MEL-2 = test system: SK-MEL-2
PC-3 = test system: PC-3
MOLT-4 = test system: MOLT-4

CC[C@H](C)C1=C(OC(C)=O)[N@+]2([O-])Oc3ccc(-c4c(O)c(O)c(-c5ccc(OC(C)=O)cc5)c(OC(C)=O)c4OC(C)=O)cc3O[C@]2([C@@H](C)CC)C(=O)N1O
GI50 (HCT-116): 10.8 µM (inactive) | GI50 (K562): 11.7 µM (inactive) | GI50 (U-251): 24.3 µM (inactive) | GI50 (OVCAR-3): 15 µM (inactive) | GI50 (HL-60): 15.9 µM (inactive) | GI50 (M14): 28.2 µM (inactive) | GI50 (786-0): 14.1 µM (inactive) | GI50 (Hs-578T): 29.3 µM (inactive) | GI50 (MDA-N): 23.2 µM (inactive) | GI50 (BT-549): 16.9 µM (inactive) | GI50 (Malme-3M): 16.6 µM (inactive) | GI50 (HOP-92): 3.84 µM (inactive) | GI50 (OVCAR-4): 11.1 µM (inactive) | GI50 (RPMI-8226): 7.85 µM (inactive) | GI50 (EKVX): 18.8 µM (inactive) | GI50 (UO-31): 35 µM (inactive) | GI50 (MDA-MB-435): 27.1 µM (inactive) | GI50 (SK-MEL-2): > 50 µM (inactive) | GI50 (PC-3): 20.6 µM (inactive) | GI50 (MOLT-4): 13.2 µM (inactive)

COP(=O)(OC)C(O)/C=C/c1ccco1 (stereo not given)
GI50 (HCT-116): > 100 µM (inactive) | GI50 (K562): > 100 µM (inactive) | GI50 (U-251): > 100 µM (inactive) | GI50 (OVCAR-3): > 100 µM (inactive) | GI50 (HL-60): > 100 µM (inactive) | GI50 (M14): > 100 µM (inactive) | GI50 (786-0): > 100 µM (inactive) | GI50 (Hs-578T): > 100 µM (inactive) | GI50 (MDA-N): > 100 µM (inactive) | GI50 (BT-549): > 100 µM (inactive) | GI50 (Malme-3M): > 100 µM (inactive) | GI50 (HOP-92): > 100 µM (inactive) | GI50 (OVCAR-4): > 100 µM (inactive) | GI50 (RPMI-8226): > 100 µM (inactive) | GI50 (EKVX): > 100 µM (inactive) | GI50 (UO-31): > 100 µM (inactive) | GI50 (MDA-MB-435): > 100 µM (inactive) | GI50 (SK-MEL-2): > 100 µM (inactive) | GI50 (PC-3): > 100 µM (inactive) | GI50 (MOLT-4): > 100 µM (inactive)

COc1cc2c[n+](C)c3c4cc5c(cc4ccc3c2cc1OC)OCO5 [NITIDINE CHLORIDE]
GI50 (HCT-116): 5.96 µM (inactive) | GI50 (K562): 4.51 µM (inactive) | GI50 (U-251): 0.371 µM (active) | GI50 (OVCAR-3): 2.24 µM (inactive) | GI50 (HL-60): 4.25 µM (inactive) | GI50 (M14): 17.1 µM (inactive) | GI50 (786-0): 2.49 µM (inactive) | GI50 (Hs-578T): 2.9 µM (inactive) | GI50 (MDA-N): 64 µM (inactive) | GI50 (BT-549): 6.5 µM (inactive) | GI50 (Malme-3M): 14.5 µM (inactive) | GI50 (HOP-92): 2.07 µM (inactive) | GI50 (OVCAR-4): 3.45 µM (inactive) | GI50 (RPMI-8226): 2.06 µM (inactive) | GI50 (EKVX): 1.7 µM (inactive) | GI50 (UO-31): > 61.4 µM (inactive) | GI50 (MDA-MB-435): > 100 µM (inactive) | GI50 (SK-MEL-2): 2.68 µM (inactive) | GI50 (PC-3): 2.33 µM (inactive) | GI50 (MOLT-4): 0.411 µM (active)
